Assay results published in the supplement of paper PMC10307832.

Key:
Test in all cases: relative viability (nuclei count vs DMSO), 5 days (fraction); higher = more cells survive
[1] = compound: Cn1nnc2c(C(N)=O)ncn2c1=O [Temozolomide] + Cc1cc(Nc2cc(N3CCN(C)CC3)nc(Sc3ccc(NC(=O)C4CC4)cc3)n2)n[nH]1 [Tozasertib] (partner 0.1 µM)
In short: (§1)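 Each reported value is a median over duplicate plates. It expresses relative viability: treated-well nuclei count divided by vehicle-well nuclei count. Lung cancer cell lines in 1536-well plates were dosed by pin tool a day after seeding, alone with one drug or with a fixed anchor-drug dose plus five library-drug doses (not always all listed) in √10 steps, and nuclei were counted after 5 days.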

[2] = compound: Cn1nnc2c(C(N)=O)ncn2c1=O [Temozolomide] + Cc1nc(NC(=O)N2CCC[C@H]2C(N)=O)sc1-c1ccnc(C(C)(C)C(F)(F)F)c1 [Alpelisib] (partner 2 µM)
In short: as §1

[3] = compound: Cn1nnc2c(C(N)=O)ncn2c1=O [Temozolomide] + N=C(N)NC(=N)NCCc1ccccc1 [Phenformin] (partner 250 µM)
In short: as §1

[4] = compound: Cn1nnc2c(C(N)=O)ncn2c1=O [Temozolomide] + CC(=O)c1c(C)c2cnc(Nc3ccc(N4CCNCC4)cn3)nc2n(C2CCCC2)c1=O [Palbociclib] (partner 0.5 µM)
In short: as §1

| Cell Line | relative viability ([1]; first compound 0.2 µM) | relative viability ([1]; first compound 0.6325 µM) | relative viability ([1]; first compound 2 µM) | relative viability ([1]; first compound 6.325 µM) | relative viability ([1]; first compound 20 µM) | relative viability ([2]; first compound 0.2 µM) | relative viability ([2]; first compound 0.6325 µM) | relative viability ([2]; first compound 2 µM) | relative viability ([2]; first compound 6.325 µM) | relative viability ([2]; first compound 20 µM) | relative viability ([3]; first compound 0.2 µM) | relative viability ([3]; first compound 0.6325 µM) | relative viability ([3]; first compound 2 µM) | relative viability ([3]; first compound 6.325 µM) | relative viability ([3]; first compound 20 µM) | relative viability ([4]; first compound 0.2 µM) | relative viability ([4]; first compound 0.6325 µM) | relative viability ([4]; first compound 2 µM) | relative viability ([4]; first compound 6.325 µM) | relative viability ([4]; first compound 20 µM) |
| --- | --- | --- | --- | --- | --- | --- | --- | --- | --- | --- | --- | --- | --- | --- | --- | --- | --- | --- | --- | --- |
| LK-2 | 0.153 | 0.155 | 0.154 | 0.169 | 0.151 | 0.544 | 1.07 | 1.1 | 0.466 | 0.391 | 0.502 | 0.568 | 0.455 | 0.179 | 0.194 | 0.599 | 0.719 | 0.601 | 0.327 | 0.2 |
| LXF-289 | 0.241 | 0.208 | 0.216 | 0.169 | 0.186 | 1.06 | 0.997 | 1.04 | 0.992 | 0.947 | 0.553 | 0.53 | 0.511 | 0.457 | 0.458 | 0.616 | 0.626 | 0.606 | 0.579 | 0.564 |
| EMC-BAC-2 | 0.326 | 0.309 | 0.274 | 0.255 | 0.314 | 0.743 | 0.731 | 0.743 | 0.75 | 0.691 | 0.604 | 0.479 | 0.586 | 0.458 | 0.564 | 0.563 | 0.534 | 0.542 | 0.511 | 0.514 |
| 201T | 1.01 | 0.888 | 0.987 | 0.943 | 0.914 | 0.977 | 1.05 | 1.04 | 1.04 | 0.985 | 0.491 | 0.449 | 0.497 | 0.376 | 0.456 | 0.348 | 0.361 | 0.382 | 0.362 | 0.355 |
| RERF-LC-KJ | 0.535 | 0.465 | 0.538 | 0.504 | 0.499 | 0.638 | 0.88 | 0.923 | 0.861 | 0.743 | 0.444 | 0.466 | 0.442 | 0.41 | 0.427 | 1.02 | 1.1 | 1.11 | 1.17 | 1.02 |
| SW 1573 | 0.298 | 0.177 | 0.162 | 0.207 | 0.169 | 0.714 | 0.783 | 0.809 | 0.69 | 0.8 | 0.348 | 0.384 | 0.457 | 0.367 | 0.348 | 0.502 | 0.44 | 0.467 | 0.4 | 0.429 |
| NCI-H2347 | 0.496 | 0.552 | 0.579 | 0.544 | 0.576 | 1.06 | 1.1 | 1.21 | 1.02 | 0.989 | 0.34 | 0.376 | 0.378 | 0.387 | 0.607 | 0.442 | 0.473 | 0.388 | 0.408 | 0.474 |
| NCI-H2126 | 0.767 | 0.864 | 0.909 | 0.782 | 0.87 | 0.703 | 0.753 | 0.799 | 0.744 | 0.752 | 0.503 | 0.591 | 0.574 | 0.513 | 0.519 | 0.347 | 0.332 | 0.349 | 0.355 | 0.345 |
| SK-LU-1 | 0.354 | 0.326 | 0.335 | 0.273 | 0.235 | 1.43 | 0.976 | 0.901 | 0.525 | 0.394 | 0.635 | 0.57 | 0.461 | 0.296 | 0.258 | 0.382 | 0.397 | 0.431 | 0.33 | 0.318 |
| NCI-H1437 | 0.422 | 0.415 | 0.422 | 0.422 | 0.415 | 1.03 | 0.922 | 0.957 | 0.953 | 1.05 | 0.346 | 0.348 | 0.378 | 0.289 | 0.34 | 0.292 | 0.336 | 0.31 | 0.329 | 0.325 |
| LCLC-103H | 0.486 | 0.481 | 0.566 | 0.456 | 0.413 | 0.819 | 0.976 | 1.09 | 0.999 | 0.927 | 0.36 | 0.365 | 0.359 | 0.31 | 0.322 | 0.503 | 0.514 | 0.496 | 0.608 | 0.413 |
| NCI-H647 | 0.263 | 0.307 | 0.412 | 0.148 | 0.147 | 1.43 | 1.21 | 1.16 | 0.866 | 0.238 | 0.624 | 0.626 | 0.593 | 0.463 | 0.208 | 0.374 | 0.502 | 0.375 | 0.342 | 0.188 |
| LC-2-ad | 0.429 | 0.517 | 0.505 | 0.41 | 0.422 | 0.896 | 0.842 | 0.942 | 0.818 | 0.642 | 0.609 | 0.651 | 0.584 | 0.601 | 0.46 | 0.474 | 0.494 | 0.512 | 0.537 | 0.473 |
